Experimental data from US20240316012A1, “METHODS FOR TREATING LYMPHOMA” (Northwestern University, priority 2023, published 2024).

System: AP-1 family transcription factors
Assay: ATAC-seq transcription factor footprint analysis after inhibitor incubation
Format: cell-based, mouse
Details: BMS-303141 5 μM, 3 hours in vitro vs DMSO
Description: Preparation of mouse and human ATAC-seq libraries. Ex vivo: For mouse ATAC-seq, ITK-SYK^CD4-creERT2, or ITK-SYK^CD4-creERT2; Pdcd1^−/− mice received a single dose of 2 mg tamoxifen. Five days after injection, single-cell suspensions were generated from the spleens and 50,000 eGFP^+ FACS-sorted cells were used for the transposase reaction. For human ATAC-seq, 50,000 malignant cells from CTCL patients with and without PDCD1 mutation were sorted by FACS as described above. The transposase reaction was performed as previously described^81. […] The reaction was monitored after 4 cycles with qPCR using 5 μl PCR reaction mixture and the same primers in 15 μl total volume (KK4617, Roche). Cycles were added as calculated, then the amplified samples were purified, and size selected using SpeedBeads (GE65152105050250, Sigma) in 22% PEG. […]
ATAC-seq analysis. […] Next, reads were aligned to the mm9 genome using Bowtie2 (v2.4.0)^71. […] To filter properly mapped reads, Applicants used Samtools with the following options: exclude multi-mapped reads (MAPQ<30) and reads with flag 1796 or 1804. Next, Samtools with option “-f 2” was used to filter properly paired reads. […] Next, Applicants filtered for nucleosome-free reads (0-100 bp) as previously described^44. […]

COc1ccc(-c2ccccc2)cc1NS(=O)(=O)c1cc(Cl)cc(Cl)c1O [BMS-303141]
AP-1 footprints in Pdcd1 deleted cells in comparison to cells with intact PD-1 pathway: de-enriched
